From patent US9388226B2, “Peptides modulating the activity of macrophages, useable for the treatment of rheumatoid arthritis” (Universite Paul Sabatier, priority 2006, dated 2016) come the findings set out here.

Assay [1] has as its system ACPAs in sera from patients suffering from RA. As to the kind of experiment: Reactivity of fibrin-derived citrullinated peptides with sera from RA patients having ACPAs. It is filed as binding, human. The settings on record: 20 sera from RA patients having detectable ACPAs. The source says:
Among these peptides, those which bear immunodominant epitopes (recognized by a large number of sera from patients suffering from RA) are given in table 2. The 20 sera tested correspond to a series originating from patients suffering from RA having ACPAs detectable by means of multiple tests for detecting these autoantibodies and which, taken as a whole, make it possible to represent the heterogeneity of the specificity profiles encountered in the patients.

Assay [2] deals with ACPA binding to citrullinated human fibrinogen. As to the kind of experiment: ELISA competition assay: inhibition of the reactivity of IgG ACPA+ with respect to citrullinated fibrinogen. The settings on record: IgG ACPA+ 16 μg/ml; competitor 0.006 to 1.56 mg/ml added 2 h before ELISA; FIG. 2. Here is the method:
96-well microtitration plates (MaxiSorp, Nunc, VWR International, Fontenay sous Bois, France) are coated with citrullinated human fibrinogen (prepared as indicated in example 1) at a rate of 100 μl/well of a solution at 5 μg/ml in PBS, pH 7.4, overnight at 4° C. The plates are then saturated with a solution of PBS containing 2% of BSA (PBS-2% BSA) (180 μl/well). After this step, the IgG ACPA+ (prepared as indicated in example 1), diluted beforehand to 16 μg/ml in PBS-2% BSA in the presence or absence of increasing amounts of the competitor peptides α36-50cit38, 42 and/or β60-74cit60, 72, 74 (each at a concentration ranging from 0.006 to 1.56 mg/ml) added 2 h before the ELISA assay, are added. The concentration used for the IgG ACPA+ was chosen because it makes it possible to obtain an OD of between 1 and 1.5 in the absence of competitor peptide. Citrullinated or noncitrullinated fibrinogen (0.0002 to 1.56 mg/ml) and the noncitrullinated forms of the α36-50cit38, 42 and β60-74cit60, 72, 74 peptides (respectively referred to as α36-50 and β60-74) are used as control. The ACPA binding is then detected with peroxidase-labeled anti-human IgG goat IgGs (SouthernBiotech, Birmingham, Ala.) diluted to 1/9000 in PBS-2% BSA. All the incubations are carried out for 1 h at 4° C. and are followed by washes in PBS-0.1% Tween 20.
The results of this ELISA competition assay are illustrated in FIG. 2. The data are representative of 3 experiments carried out with two different preparations of IgG ACPA+. The results are expressed as degree of inhibition of the reactivity obtained in the absence of competitor peptide.
In general terms: An ELISA detects its analyte on a solid surface through an enzyme-linked reagent.

The subject of assay [3] is human macrophages. Put plainly: Inhibition of the stimulation of human macrophages by ICs associating ACPAs and citrullinated fibrinogen, TNF-α in supernatants. It is filed as cell-based. Conditions: IgG ACPA+ 1.13 mg/ml; for TNFα level: citrullinated fibrinogen plates. As to the method: The reconstitution of ICs associating ACPAs and citrullinated fibrinogen is carried out by coating flat-bottomed 96-well culture plates (Nunclon delta, Nunc, Roskilde, Denmark), under sterile conditions, with human citrullinated fibrinogen at 10 μg/ml, added at a rate of 50 μl/well and incubated overnight at 4° C. The plates are subsequently saturated in PBS, pH 7.4, 2% BSA for 1 hour at 4° C. (180 μl/well). After 3 washes in PBS, pH 7.4, 0.1% Tween-20, the wells are incubated for 2 hours at 4° C. with 100 μl of IgG ACPA+ at various concentrations (ranging from 9 to 0.28 mg/ml) diluted in PBS containing 2% BSA and 2M NaCl. Negative controls are made up in the same way, using either noncitrullinated human fibrinogen as antigen coated at the bottom of the plate, or control IgGs as antibodies. Wells coated only with citrullinated or noncitrullinated human fibrinogen and saturated in PBS, pH 7.4, 2% BSA are also used as negative controls.
After 3 washes in PBS, pH 7.4, 0.1% Tween-20, then 3 washes in PBS, the macrophages are added at a rate of 50000 viable cells/well in a volume of 200 μl. After incubation for 24 hours at 37° C. under an atmosphere containing 5% CO2, the supernatants are recovered (160 μl/well) and are rapidly frozen at −20° C. until they are analyzed. The negative control for activation is carried out using macrophages in macrophage-SFM medium alone. Macrophages placed on aggregated IgGs immobilized at the bottom of the culture plates by passive adsorption (at a rate of 100 μl of a solution at 5 μg/ml per well), or placed in the presence of bacterial lipopolysaccharide (LPS, Escherichia coli 0.55:B5 at a final concentration of 0.5 μg/ml; Sigma-Aldrich Chimie), are used as controls for the ability of the macrophages to respond to a stimulus inducing TNF-α synthesis.
An ELISA assay kit for human TNF-α, comprising a capture antibody, a detection antibody and recombinant human TNF-α for making up a calibration range of 7.8 to 500 pg/ml, was used to assay this cytokine in the culture supernatants (Human TNF-alpha BD OptEIA™ ELISA et, BD Biosciences Pharmingen, Pont-de-Claix, France).
The preparation and the stimulation of the macrophages are carried out exactly under the conditions described in example 1, except for the fact that the reconstitution of ICs is carried out with IgG ACPA+ diluted to 1.13 mg/ml in PBS containing 2M of NaCl and 2% of BSA in the presence or absence of the competitor peptide β60-74cit60, 72, 74 at two concentrations (0.8 and 4 mg/ml) added 2 h before the incubation with the citrullinated fibrinogen immobilized at the bottom of the culture plates. Competitions with citrullinated or noncitrullinated fibrinogen (0.4 mg/ml) and also with the noncitrullinated peptide β60-74 (0.8 and 4 mg/ml), are also carried out as control.

Non-standard residues stand in square brackets, D forms with d. No end group written: not given here. Cit = NC(=O)NCCC[C@H](N)C(=O)O

With “GPXVVEXHQSACKDS (GP[Cit]VVE[Cit]HQSACKDS) [α36-50cit38, 42, fibrinogen α-chain derived citrullinated peptide, X = citrullyl residue]”, the “NUMBER OF REACTIVE SERA OUT OF THE 20 TESTED” value in assay [1] was 12. In addition, in assay [2], the “percentage inhibition of the ACPA binding to the citrullinated fibrinogen, plateau value” (“percentage inhibition” for short) is listed as “approximately 15%”.
For the substance “SGIGTLDGFXHXHPD (SGIGTLDGF[Cit]H[Cit]HPD) [α501-515cit510, 512, fibrinogen α-chain derived citrullinated peptide, X = citrullyl residue]”, the “NUMBER OF REACTIVE SERA OUT OF THE 20 TESTED” value in assay [1] was 9.
The same measure, in the same setting: with “VDIDIKIXSCXGSCS (VDIDIKI[Cit]SC[Cit]GSCS; cysteine pairing not given here) [α171-185cit178, 181, fibrinogen α-chain derived citrullinated peptide, X = citrullyl residue]” the figure was 9; with “XGHAKSXPVXGIHTS ([Cit]GHAKS[Cit]PV[Cit]GIHTS) [α621-635cit621, 627, 630, fibrinogen α-chain derived citrullinated peptide, X = citrullyl residue]”, 10.
“XPAPPPISGGGYXAX ([Cit]PAPPPISGGGY[Cit]A[Cit]-NH2) [β60-74cit60, 72, 74, fibrinogen β-chain derived citrullinated peptide, X = citrullyl residue]”: the “NUMBER OF REACTIVE SERA OUT OF THE 20 TESTED” value in assay [1] stood at 14. Also, the “percentage inhibition” value in assay [2] is “approximately 60%”. The figures for the TNFα level result in assay [3] (competitor peptide 0.8 mg/ml) and in assay [3] (competitor peptide 4 mg/ml) were “approximately 40 pg/ml” and “less than 20 pg/ml”, respectively. Besides, the “effect on TNF-α production in response to the ICs (in words)” value in assay [3] (competitor 0.8 and 4 mg/ml (peptide)) was “dose-dependent inhibition”.
On to “citrullinated fibrinogen: purified human fibrinogen incubated with rabbit skeletal muscle peptidylarginine deiminase”, for which the “percentage inhibition” value in assay [2] was “approximately 80%”. Also, in assay [3] (fibrinogen competitor 0.4 mg/ml), the TNFα level entry is “approximately 20 pg/ml”.
